According to article PMC10163738, “Switch from a ritonavir to a cobicistat containing antiretroviral regimen and impact on tacrolimus levels in a kidney transplant recipient” (Virology Journal, 2023):
Read-outs that look alike come from different tables or passages of the source. Marks after values point to notes of the source that are not given here.

Tests used:
[1] = Tacrolimus pharmacokinetic profiles and trough level monitoring before and after switch of booster from ritonavir to cobicistat in an HIV-infected kidney transplant recipient; type: in vivo, human; conditions: for AUC(0-t): read-out: AUC264h; for half-life: read-out: T1/2 (elimination half-life) (converted)
Excerpt: Due to the high daily pill burden (i.e., 4 tablets mycophenolate mofetil, 10 tablets for the antiretroviral regimen, 7 pills for the treatment of cardiovascular risk factors, and 8 pills for additional indications), and with new combination antiretroviral pills available, a treatment simplification was envisaged. A feasible antiretroviral treatment considering the multi-drug resistant HIV virus was the combination of dolutegravir (INSTI), rilpivirine (NNRTI), maraviroc and the single tablet combination including emtricitabine, tenofovir alafenamide and darunavir boosted with cobicistat (darunavir/c). […] Due to the inducing properties of ritonavir, we predicted that a switch to cobicistat could result in higher tacrolimus concentrations. During three weeks before and three weeks after the switch we closely monitored tacrolimus drug levels (3 full pharmacokinetic profiles before and after changing the booster) to evaluate the effect on tacrolimus exposure (Figs. 1, 2).
Fig. 1 Tacrolimus profiles during ritonavir-boosted and cobicistat-boosted antiretroviral regimens. Three 11 days pharmacokinetic tacrolimus concentrations profiles in blue while on the ritonavir-boosted regimen before the switch and in red while on the cobicistat-boosted regimen after the switch. *For practical reasons (weekend, holidays) tacrolimus trough levels were measured on day 9 at the end of the third pharmacokinetic profile and on day 10 at the end of the sixth pharmacokinetic profile
Fig. 2 Antiretroviral treatment and tacrolimus trough levels before and after therapy switch. Blue bars indicate drugs before switch and blue dots tacrolimus levels before switch. Red bars indicate drugs after switch and red dots indicate tacrolimus trough levels after switch.

[2] = as above; type: in vivo, human; conditions: co-administered with darunavir/ritonavir 800/100 mg once daily, 3rd pharmacokinetic profile, dosing interval 10 days for practical reasons
[3] = design: method as in PMID 25708713; conditions: co-administered with ritonavir; cited from earlier work
[4] = renal transplant recipients in absence of strong inhibitors; cited from earlier work
[5] = human, plasma, oral, co-administered with darunavir/cobicistat 800/150 mg once daily, 1st pharmacokinetic profile
[6] = human, plasma, oral, co-administered with darunavir/cobicistat 800/150 mg once daily, 2nd pharmacokinetic profile
[7] = human, plasma, oral, co-administered with darunavir/cobicistat 800/150 mg once daily, 3rd pharmacokinetic profile

SMILES: C=CC[C@@H]1/C=C(\C)C[C@H](C)C[C@H](OC)[C@H]2O[C@@](O)(C(=O)C(=O)N3CCCC[C@H]3C(=O)O[C@H](/C(C)=C/[C@@H]3CC[C@@H](O)[C@H](OC)C3)[C@H](C)[C@@H](O)CC1=O)[C@H](C)C[C@@H]2OC [Tacrolimus, tacrolimus]
- Tmax ([1]; co-administered with darunavir/cobicistat 800/150 mg once daily, 1st pharmacokinetic profile): 2 h
- C0h (pre-dose plasma concentration) ([1]; co-administered with darunavir/cobicistat 800/150 mg once daily, 2nd pharmacokinetic profile, tacrolimus once every 11 days): 4.1 µg/L
- C0h (pre-dose plasma concentration) ([1]; co-administered with darunavir/cobicistat 800/150 mg once daily, 3rd (sixth overall) pharmacokinetic profile, dosing interval 10 days for practical reasons): 4.0^a µg/L
- C0h (pre-dose plasma concentration) ([1]; co-administered with darunavir/ritonavir 800/100 mg once daily, 1st pharmacokinetic profile, tacrolimus once every 11 days): 7.3 µg/L
- C0h (pre-dose plasma concentration) ([1]; co-administered with darunavir/ritonavir 800/100 mg once daily, 2nd pharmacokinetic profile, tacrolimus once every 11 days): 6.1 µg/L
- C0h (pre-dose plasma concentration) ([1]; darunavir/cobicistat 800/150 mg once daily section, 1st profile, trough at the day of the switch, i.e. last trough on darunavir/ritonavir, immediately before darunavir/cobicistat): 6.8^b µg/L
- tacrolimus trough level ([1]; eleven months post pharmacokinetic booster switch (cobicistat-boosted regimen), dosing interval 11 days): 2.1 µg/L
- Cmax ([1]; human, plasma, oral, 0.5 mg, co-administered with darunavir/ritonavir 800/100 mg once daily, 1st pharmacokinetic profile): 0.0151 µg/mL
- Cmax ([1]; human, plasma, oral, 0.5 mg, co-administered with darunavir/ritonavir 800/100 mg once daily, 2nd pharmacokinetic profile): 0.0177 µg/mL
- Cmax ([1]; human, plasma, oral, 0.5 mg, co-administered with darunavir/ritonavir 800/100 mg once daily, 3rd pharmacokinetic profile): 0.0176 µg/mL
- Cmax [1, 5]: 0.0117 µg/mL
- AUC(0-t) ([1]; human, plasma, oral, co-administered with darunavir/cobicistat 800/150 mg once daily, 1st pharmacokinetic profile, dosing interval 11 days): 1.75 µg·h/mL
- half-life [1, 5]: 226 h
- Cmax [1, 6]: 0.0137 µg/mL
- AUC(0-t) ([1]; human, plasma, oral, co-administered with darunavir/cobicistat 800/150 mg once daily, 2nd pharmacokinetic profile, dosing interval 11 days): 1.87 µg·h/mL
- half-life [1, 6]: 175 h
- Tmax ([1]; human, plasma, oral, co-administered with darunavir/cobicistat 800/150 mg once daily, 2nd pharmacokinetic profile, read-out: Tmax): 8 h
- Cmax [1, 7]: 0.0126 µg/mL
- half-life [1, 7]: 183 h
- Tmax ([1]; human, plasma, oral, co-administered with darunavir/cobicistat 800/150 mg once daily, 3rd pharmacokinetic profile, read-out: Tmax): 4 h
- AUC(0-t) ([1]; human, plasma, oral, co-administered with darunavir/ritonavir 800/100 mg once daily, 1st pharmacokinetic profile, dosing interval 11 days): 2.65 µg·h/mL
- half-life ([1]; human, plasma, oral, co-administered with darunavir/ritonavir 800/100 mg once daily, 1st pharmacokinetic profile): 227 h
- Tmax ([1]; human, plasma, oral, co-administered with darunavir/ritonavir 800/100 mg once daily, 1st pharmacokinetic profile, read-out: Tmax): 8 h
- AUC(0-t) ([1]; human, plasma, oral, co-administered with darunavir/ritonavir 800/100 mg once daily, 2nd pharmacokinetic profile, dosing interval 11 days): 2.39 µg·h/mL
- half-life ([1]; human, plasma, oral, co-administered with darunavir/ritonavir 800/100 mg once daily, 2nd pharmacokinetic profile): 275 h
- Tmax ([1]; human, plasma, oral, co-administered with darunavir/ritonavir 800/100 mg once daily, 2nd pharmacokinetic profile, read-out: Tmax): 4 h
- half-life ([1]; human, plasma, oral, co-administered with darunavir/ritonavir 800/100 mg once daily, 3rd pharmacokinetic profile): 266 h
- Tmax ([1]; human, plasma, oral, co-administered with darunavir/ritonavir 800/100 mg once daily, 3rd pharmacokinetic profile, read-out: Tmax): 4 h
- AUC(0-t) ([1]; human, plasma, oral, co-administered with darunavir/cobicistat 800/150 mg once daily, 3rd (sixth overall) pharmacokinetic profile, dosing interval 10 days for practical reasons): 1.24 µg·h/mL
- C0h (pre-dose plasma concentration) [2]: 6.2^a µg/L
- AUC(0-t) ([2]; human, plasma, oral, read-out: AUC264h): 2.35 µg·h/mL
- increase of tacrolimus elimination half-life [3]: sevenfold
- increase of tacrolimus exposure [3]: 57 fold
- CL/F [4]: 6.7 L/h
- T1/2 [4]: 15.6 h
